Source: patent US8846570B2, “Herbicidal compositions comprising 4-amino-3-chloro-5-fluoro-6-(4-chloro-2-fluoro-3-methoxyphenyl)pyridine-2-carboxylic acid or a derivative thereof and microtubule inhibiting herbicides” (Dow AgroSciences LLC, priority 2012, dated 2014)

Experiments:
[1] = system: Ipomoea hederacea Jacq. (IPOHE); test: Postemergence foliar-applied, direct seeded rice, greenhouse: visual weed control; format: in vivo; details: post-emergence, 480 h, read-out: Visual Weed Control (%) Obs
Experimental: Seeds or nutlets of the desired test plant species were planted in a soil matrix prepared by mixing a loam or sandy loam soil (e.g., 28.6 percent silt, 18.8 percent clay, and 52.6 percent sand, with a pH of about 5.8 and an organic matter content of about 1.8 percent) and calcareous grit in an 80 to 20 ratio. The soil matrix was contained in plastic pots with a volume of 1 quart and a surface area of 83.6 cm^2. […] The plants were grown for 8-22 days in a greenhouse with an approximate 14 h photoperiod which was maintained at about 29° C. during the day and 26° C. during the night. Nutrients (Peters Excel® 15-5-15 5-Ca 2-Mg and iron chelate) were applied in the irrigation solution as needed and water was added on a regular basis. Supplemental lighting was provided with overhead metal halide 1000-Watt lamps as necessary. The plants were employed for testing when they reached the first through fourth true leaf stage.
Forms of compound A were applied on an acid equivalent basis.
(§1) For treatments comprised of formulated compounds, measured amounts of compounds were placed individually in 25 mL glass vials and diluted in a volume of 1.25% (v/v) Agri-Dex® crop oil concentrated to obtain 12× stock solutions. […] Application solutions were prepared by adding an appropriate amount of each stock solution (e.g., 1 mL) and diluted to the appropriate final concentrations with the addition of 10 mL of an aqueous mixture of 1.25% (v/v) crop oil concentrate so that the final spray solutions contained 1.25+/−0.05% (v/v) crop oil concentrate.
As required, additional water and/or 97:3 v/v acetone/DMSO was added to individual application solutions so that the final acetone and DMSO concentrations of the application solutions being compared were 8.1% and 0.25%, respectively.
(§2) All stock solutions and applications solutions were visually inspected for compound compatibility prior to application. Spray solutions were applied to the plant material with an overhead Mandel track sprayer equipped with a 8002E nozzles calibrated to deliver 187 L/ha over an application area of 0.503 m^2 at a spray height of 18 to 20 inches (46 to 50 cm) above average plant canopy height. Control plants were sprayed in the same manner with the solvent blank.
The treated plants and control plants were placed in a greenhouse as described above and watered by sub-irrigation to prevent wash-off of the test compounds. After approximately 3 weeks, the condition of the test plants as compared with that of the untreated plants was determined visually and scored on a scale of 0 to 100 percent where 0 corresponds to no injury or growth inhibition and 100 corresponds to complete kill.
Colby's equation was used to determine the herbicidal effects expected from the mixtures (Colby, S. R. 1967. Calculation of the synergistic and antagonistic response of herbicide combinations. Weeds 15:20-22.).
The following equation was used to calculate the expected activity of mixtures containing two active ingredients, A and B: Expected=A+B−(A×B/100)

[2] = system: Xanthium strumarium L. (XANST); test: Pre-emergence soil-applied, greenhouse: visual weed control; format: in vivo; details: 27 DAA
Source text: Seeds or nutlets of the desired test plant species were planted in a soil matrix prepared by mixing a loam soil (e.g., 32 percent silt, 23 percent clay, and 45 percent sand, with a pH of about 6.5 and an organic matter content of about 1.9 percent) and calcareous grit in an 80 to 20 ratio. The soil matrix was contained in plastic pots with a volume of 1 quart and a surface area of 83.6 square centimeters (cm^2).
Treatments consisted of the benzyl ester of 4-amino-3-chloro-5-fluoro-6-(4-chloro-2-fluoro-3-methoxy-phenyl)pyridine-2-carboxylic acid (compound A) formulated as an SC (suspension concentrate) and various herbicidal components alone and in combination. Forms of compound A were applied on an acid equivalent basis.
Treatment requirements were calculated based upon the rates being tested, the concentration of active ingredient or acid equivalent in the formulation, and a 12 mL application volume at a rate of 187 L/ha.
as §1, with “oil concentrate (COC)” for “oil concentrated”, “(v/v) COC” for “(v/v) crop oil concentrate”, “contained 1.25%” for “contained 1.25+/−0.05%”, “(v/v) COC.” for “(v/v) crop oil concentrate.”
For treatments comprised of formulated and technical compounds, weighed amounts of the technical materials were placed individually in 25 mL glass vials and dissolved in a volume of 97:3 (v/v) acetone/DMSO to obtain 12× stock solutions, and measured amounts of the formulated compounds were placed individually in 25 mL glass vials and diluted in a volume of 1.5% (v/v) COC or water to obtain 12× stock solutions. […] Application solutions were prepared by adding an appropriate amount of each stock solution (e.g., 1 mL) and diluted to the appropriate final concentrations with the addition of an appropriate amount of an aqueous mixture of 1.5% (v/v) COC so that the final spray solutions contained 1.25% (v/v) COC. As required, additional water and/or 97:3 (v/v) acetone/DMSO was added to individual application solutions so that the final acetone and DMSO concentrations of the application solutions being compared were 8.1% and 0.25%, respectively.
as §2, with “soil” for “plant material”, “18” for “18 to 20”, “(46” for “(46 to 50”, “pot” for “plant canopy”, “pots” for “plants”
The treated and control pots were placed in a greenhouse and top watered as needed. When required to ensure good germination and healthy plants, a fungicide treatment and/or other chemical or physical treatment was applied. The pots were maintained in a greenhouse with an approximate 14 hr photoperiod which was maintained at about 29° C. during the day and 26° C. during the night. Nutrients (Peters® Excel 15-5-15 5-Ca 2-Mg) were applied in the irrigation solution as needed and water was added on a regular basis. Supplemental lighting was provided with overhead metal halide 1000-Watt lamps as necessary. After approximately 4 weeks, the condition of the test plants as compared with that of the untreated plants was determined visually and scored on a scale of 0 to 100 percent where 0 corresponds to no injury or growth inhibition and 100 corresponds to complete kill.
Colby's equation was used to determine the herbicidal effects expected from the mixtures (Colby, S. R. 1967. Calculation of the synergistic and antagonistic response of herbicide combinations. Weeds 15:20-22.). […]

SMILES: COC(=O)c1c(C(F)F)nc(C(F)(F)F)c(C2=NCCS2)c1CC(C)C [Thiazopyr, methyl 2-(difluoromethyl)-5-(4,5-dihydro-2-thiazolyl)-4-(2-methylpropyl)-6-(trifluoromethyl)-3-pyridinecarboxylate]
- pest or weed control at 280 g/ha [1]: 40%
- Visual Weed Control (%) Obs ([2]; 280 g ai/ha): 15%
- Visual Weed Control (%) Obs ([2]; 560 g ai/ha): 10%
